{"source": "patent EP4703362A1", "about": "(Chengdu Sibeibo Pharmaceutical Technology Co., Ltd, priority 2023, dated 2024)"}
{"target": "T1, CGRP receptor complex (Homo sapiens, UniProt O60894+Q16602)", "T1 construct": "host or cells: SK-N-MC", "T1 sequence (Q16602 23-461)": "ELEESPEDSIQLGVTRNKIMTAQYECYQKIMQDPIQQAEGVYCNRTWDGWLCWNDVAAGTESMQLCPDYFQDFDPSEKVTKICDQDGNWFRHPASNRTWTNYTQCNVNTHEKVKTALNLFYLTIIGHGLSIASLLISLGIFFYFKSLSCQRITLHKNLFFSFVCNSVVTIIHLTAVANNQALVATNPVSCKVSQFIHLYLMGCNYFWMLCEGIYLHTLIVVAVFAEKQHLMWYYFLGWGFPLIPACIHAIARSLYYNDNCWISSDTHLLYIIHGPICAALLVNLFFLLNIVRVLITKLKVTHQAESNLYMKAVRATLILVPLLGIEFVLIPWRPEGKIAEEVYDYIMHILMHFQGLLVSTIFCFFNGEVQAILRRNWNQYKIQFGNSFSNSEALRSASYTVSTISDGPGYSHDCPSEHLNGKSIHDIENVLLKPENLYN", "T1 sequence (O60894 27-148)": "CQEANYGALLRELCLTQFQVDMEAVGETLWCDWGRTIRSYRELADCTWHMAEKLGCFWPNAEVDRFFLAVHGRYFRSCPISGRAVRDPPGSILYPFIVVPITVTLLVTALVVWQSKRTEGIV", "test": "determination of cell functional antagonism - cAMP determination", "format": "cell-based", "conditions": "not given", "experimental": "(§1) 1.Experimental principle A CGRP receptor complex was coupled with Gs in G protein, the combination of CGRP and CGRP receptor complex led to Gs activation, and cAMP (3',5'-cyclic adenosine monophosphate) was produced. 2.Experimental purpose The ability of the compound of the present invention to inhibit CGRP-stimulated cAMP formation in SK-N-MC cells was determined. 3.Experimental materials 3.1Experimental cell line: SK-N-MC (neuroepithelioma cells) from National Science and Technology Infrastructure - Biomedical Materials and Cell Resources. 3.2Reagents and consumables\n(§2) 4.Experimental steps • 4.1Cell preparation: The SK-N-MC cells were resuscitated and cultured in advance, and a cell confluence degree should be 70%-80% before use. • 4.2A sample dilution, a tested compound and α-CGRP (human) were prepared. • 4.3Cell seeding and drug effect: The SK-N-MC cells were digested, centrifuged, then resuspended with the sample dilution, and inoculated into a 384-well plate. Each well was added with the α-CGRP (human) and the tested compound respectively, and blown and mixed evenly. The well plate was adhered with a sealing film, and placed on an enzyme-labeled incubator to incubate at 25°C. • 4.4cAMP determination: carried out according to LANCE Ultra cAMP Kit specification Eu-cAMP tracer and ULight-anti-cAMP working solutions were prepared in the dark, respectively added into the well plate, and blown and mixed evenly.", "units": {"IC50": "nM"}}
{"smiles": "Cc1cc(C[C@@H](NC(=S)N2CCC(c3cc4c([nH]c3=O)SCCC4)CC2)C(=O)N2CCN(C3CCN(C)CC3)CC2)cc2cn[nH]c12", "note": "[Example 23]", "IC50": 1.12}
{"smiles": "Cc1cc(C[C@@H](NC(=O)N2CCC(c3cc4c([nH]c3=O)[S+]([O-])CCC4)CC2)C(=O)N2CCN(C3CCN(C)CC3)CC2)cc2cn[nH]c12", "note": "(stereo partly drawn) [Example 32, N-((R)-3-(7-methyl-1H-indazole-5-yl)-1-(4-(1-methylpiperidine-4-yl)piperazine-1-yl)-1-oxopropan-2-yl)-4-(1-oxidation-7-oxo-3,4,7,8-tetrahydro-2H-thiopyrano[2,3-b]pyridine-6-yl)pipe ridine-1-formamide]", "IC50": 0.29}
{"smiles": "Cc1cc(C[C@@H](NC(=O)N2CCC(c3cc4c([nH]c3=O)SCC4)CC2)C(=O)N2CC3CC2CC3N2CCCCC2)cc2cn[nH]c12", "note": "(stereo partly shown) [Example 36]", "IC50": 4.61}
{"smiles": "Cc1cc(CC(OC(=O)N2CCC(c3cc4c([nH]c3=O)SCCC4)CC2)C(=O)N2CCN(C3CCN(C)CC3)CC2)cc2cn[nH]c12", "note": "(stereo not shown) [Example 41]", "IC50": 0.38}
{"smiles": "Cc1cc(C[C@@H](NC(=O)N2CCC(c3cc4c([nH]c3=O)SCC4)CC2)C(=O)N2CCC(C)(N3CCCCC3)CC2)cc2cn[nH]c12", "note": "[Example 22, (R)-N-(3-(7-methyl-1H-indazole-5-yl)-1-(4'-methyl-[1,4'-bipiperidine]-1'-yl)-1-oxopropan-2-yl)-4-(6-oxo-2,3,6,7-tetrahydrothieno[2,3-b]pyridine-6-yl)piperidine-1-formamide]", "IC50": 0.81}
{"smiles": "Cc1cc(C[C@@H](NC(=O)N2CCC(c3cc4c([nH]c3=O)[S+]([O-])CC4)CC2)C(=O)N2CCN(C3CCN(C)CC3)CC2)cc2cn[nH]c12", "note": "(stereo partly drawn) [Example 35, N-((R)-3-(7-methyl-1H-indazole-5-yl)-1-(4-(1-methylpiperidine-4-yl)piperazine-1-yl)-1-oxopropan-2-yl)-4-(1-oxidation-6-oxo-2,3,6,7-tetrahydrothieno[2,3-b]pyridine-5-yl)piperidine-1-formamide]", "IC50": 0.69}
{"smiles": "Cc1cc(C[C@@H](NC(=O)N2CCC(c3cc4c([nH]c3=O)CCC4)CC2)C(=O)N2CCN(C3CCN(C)CC3)CC2)cc2cn[nH]c12", "note": "[Example 51, (R)-N-(3-(7-methyl-1H-indazole-5-yl)-1-(4-(1-methylpiperidine-4-yl)piperazine-1-yl)-1-oxopropan-2-yl)-4-(2-oxo-2,5,6,7-tetrahydro-1H-cyclopentadieno[b]pyridine-3-yl)piperidine-1-f ormamide]", "IC50": 1.94}
{"target": "T1, CGRP receptor complex", "test": "determination of cell functional antagonism - cAMP determination", "format": "cell-based", "conditions": "inhibition of CGRP-stimulated cAMP formation in SK-N-MC cells", "experimental": "as §1, §2", "units": {"IC50": "nM"}}
{"smiles": "Cc1cc(C[C@@H](NC(=O)N2CCN(c3cc4c([nH]c3=O)SCCC4)CC2)C(=O)N2CCN(C3CCN(C)CC3)CC2)cc2cn[nH]c12", "note": "[Example 18, (R)-N-(3-(7-methyl-1H-indazole-5-yl)-1-(4-(1-methylpiperidine-4-yl)piperazine-1-yl)-1-oxopropan-2-yl)-4-(7-oxo-3,4,7,8-tetrahydro-2H-thiopyrano[2,3-b]pyridine-6-yl)piperazine-1-for mamide]", "IC50": 0.95}
{"smiles": "Cc1cc(C[C@@H](NC(=O)N2CCC(c3cc4c([nH]c3=O)CSCC4)CC2)C(=O)N2CCN(C3CCN(C)CC3)CC2)cc2cn[nH]c12", "note": "[Example 13, (R)-N-(3-(7-methyl-1H-indazole-5-yl)-1-(4-(1-methylpiperidine-4-yl)piperazine-1-yl)-1-oxopropan-2-yl)-4-(2-oxo-2,5,6,8-tetrahydro-1H-thiopyrano[3,4-b]pyridine-3-yl)piperidine-1-for mamide]", "IC50": 1.44}
{"target": "T1, CGRP receptor complex", "test": "determination of cell functional antagonism - cAMP determination", "format": "cell-based", "conditions": "inhibition of CGRP-stimulated cAMP formation in SK-N-MC cells; read-out: IC50", "experimental": "as §1, §2", "units": {"IC50": "nM"}}
{"smiles": "Cc1cc(CC(CC(=O)N2CCC(c3cc4c([nH]c3=O)SCCC4)CC2)C(=O)N2CCN(C3CCN(C)CC3)CC2)cc2cn[nH]c12", "note": "(stereo not shown) [Example 27, 2-((7-methyl-1H-indazole-5-yl)methyl)-1-(4-(1-methylpiperidine-4-yl)piperazine-1-yl)-4-(4-(7-oxo-3,4,7,8-tetrahydro-2H-thiopyrano[2,3-b]pyridine-6-yl)piperidine-1-yl)butane-1,4-dione]", "IC50": 1.24}
{"smiles": "Cc1cc(C[C@@H](NC(=O)N2CCC(c3cc4c([nH]c3=O)CCS4)CC2)C(=O)N2CCN(C3CCN(C)CC3)CC2)cc2cn[nH]c12", "note": "[Example 17, (R)-N-(3-(7-methyl-1H-indazole-5-yl)-1-(4-(1-methylpiperidine-4-yl)piperazine-1-yl)-1-oxopropan-2-yl)-4-(5-oxo-2,3,4,5-tetrahydrothieno[3,2-b]pyridine-6-yl)piperidine-1-formamide]", "IC50": 15.4}
{"smiles": "Cc1cc(C[C@@H](NC(=O)N2CCC(c3cc4c([nH]c3=O)CCCC4)CC2)C(=O)N2CCN(C3CCN(C)CC3)CC2)cc2cn[nH]c12", "note": "[Example 52, (R)-N-(3-(7-methyl-1H-indazole-5-yl)-1-(4-(1-methylpiperidine-4-yl)piperazine-1-yl)-1-oxopropan-2-yl)-4-(2-oxo-1,2,5,6,7,8-hexahydroquinoline-3-yl)piperidine-1-formamide]", "IC50": 1.04}
{"smiles": "Cc1cc(C[C@@H](NC(=O)N2CCC(c3cc4c([nH]c3=O)SCCC4)CC2)C(=O)N2C3CCC2CC(N2CCCCC2)C3)cc2cn[nH]c12", "note": "(stereo partly drawn) [Example 39, N-((2R)-3-(7-methyl-1H-indazole-5-yl)-1-oxo-1-(3-(piperidine-1-yl)-8-azabicyclo[3.2.1]octane-8-yl)propan-2-yl)-4-(7-oxo-3,4,7,8-tetrahydro-2H-thiopyrano[2,3-b]pyridine-6-yl)piperidine-1-formamide]", "IC50": 0.13}
{"smiles": "Cc1cc(C[C@@H](NC(=O)N2CCC(c3cc4c([nH]c3=O)SCC4)CC2)C(=O)N2CCC(N3CCCCC3)CC2)cc2cn[nH]c12", "note": "[Example 20, (R)-N-(1-([1,4'-bipiperidine]-1'-yl)-3-(7-methyl-1H-indazole-5-yl)-1-oxopropan-2-yl)-4-(6-oxo-2,3,6,7-tetrahydrothieno[2,3-b]pyridine-5-yl)piperidine-1-formamide]", "IC50": 0.37}
{"smiles": "Cc1cc(C[C@@H](NC(=O)N2CCC(c3cc4c([nH]c3=O)SCC3(CC3)C4)CC2)C(=O)N2CCN(C3CCN(C)CC3)CC2)cc2cn[nH]c12", "note": "[Example 46, (R)-N-(3-(7-methyl-1H-indazole-5-yl)-1-(4-(1-methylpiperidine-4-yl)piperazine-1-yl)-1-oxopropan-2-yl)-4-(7'-oxo-7',8'-dihydro-2'H,4'H-spiro[cyclopropane-1,3'-thiopyrano[2,3-b]pyridine]-6'-yl)piperidine-1-formamide]", "IC50": 0.15}
{"smiles": "Cc1cc(C[C@@H](NC(=O)N2CCC(c3cc4c([nH]c3=O)SCC4(C)C)CC2)C(=O)N2CCN(C3CCN(C)CC3)CC2)cc2cn[nH]c12", "note": "[Example 2, (R)-4-(3,3-dimethyl-6-oxo-2,3,6,7-tetrahydrothieno[2,3-b]pyridine-5-yl)-N-(3-(7-methyl-1H-indazole-5-yl)-1-(4-(1-methylpiperidine-4-yl)piperazine-1-yl)-1-oxopropan-2-yl)piperidine-1-formamide]", "IC50": 0.65}
{"smiles": "Cc1cc(C[C@@H](NC(=O)N2CCC(c3cc4c([nH]c3=O)SCCC4)CC2)C(=O)N2CCC(N3CCCCC3)CC2)cc2cn[nH]c12", "note": "[Example 26, (R)-N-(1-([1,4'-bipiperidine]-1'-yl)-3-(7-methyl-1H-indazole-5-yl)-1-oxopropan-2-yl)-4-(7-oxo-3,4,7,8-tetrahydro-2H-thiopyrano[2,3-b]pyridine-6-yl)piperidine-1-formamide]", "IC50": 0.1}
{"smiles": "Cc1cc(C[C@@H](NC(=O)N2CCC(c3cc4c([nH]c3=O)SCC4)CC2)C(=O)N2CCC(N3CCN(C)CC3)CC2)cc2cn[nH]c12", "note": "[Example 19, (R)-N-(3-(7-methyl-1H-indazole-5-yl)-1-(4-(4-methylpiperazine-1-yl)piperidine-1-yl)-1-oxopropan-2-yl)-4-(6-oxo-2,3,6,7-tetrahydrothieno[2,3-b]pyridine-5-yl)piperidine-1-formamide]", "IC50": 0.39}
{"smiles": "Cc1cc(C[C@@H](NC(=O)N2CCC(c3cc4c([nH]c3=O)SCCC4)CC2)C(=O)N2CC3CC2CC3N2CCCCC2)cc2cn[nH]c12", "note": "(stereo partly drawn) [Example 40, N-((2R)-3-(7-methyl-1H-indazole-5-yl)-1-oxo-1-(5-(piperidine-1-yl)-2-azabicyclo[2.2.1]hept-2-yl)propan-2-yl)-4-(7-oxo-3,4,7,8-tetrahydro-2H-thiopyrano[2,3-b]pyridine-6-yl)piperidine-1-formamide]", "IC50": 3.47}
{"smiles": "Cc1cc(C[C@@H](NC(=O)N2CCC(c3cc4c([nH]c3=O)SCCC4)CC2)C(=O)N2CCN(C3CCNCC3)CC2)cc2cn[nH]c12", "note": "[Example 49, (R)-N-(3-(7-methyl-1H-indazole-5-yl)-1-oxo-1-(4-(piperidine-4-yl)piperazine-1-yl)propan-2-yl)-4-(7-oxo-3,4,7,8-tetrahydro-2H-thiopyrano[2,3-b]pyridine-6-yl)piperidine-1-formamide]", "IC50": 0.14}
{"smiles": "Cc1cc(CC(CC(=O)N2CCC(c3cc4c([nH]c3=O)SCC4)CC2)C(=O)N2CCN(C3CCN(C)CC3)CC2)cc2cn[nH]c12", "note": "(stereo not shown) [Example 31, 2-((7-methyl-1H-indazole-5-yl)methyl)-1-(4-(1-methylpiperidine-4-yl)piperazine-1-yl)-4-(4-(6-oxo-2,3,6,7-tetrahydrothieno[2,3-b]pyridine-5-yl)piperidine-1-yl)butane-1,4-dione]", "IC50": 2.05}
{"target": "T1, CGRP receptor complex", "test": "determination of cell functional antagonism - cAMP determination", "format": "cell-based", "conditions": "inhibition of CGRP-stimulated cAMP formation, statement of the conclusion", "experimental": "as §1, §2"}
{"smiles": "Cc1cc(C[C@@H](NC(=O)N2CCC(c3cc4c([nH]c3=O)SCC4(C)C)CC2)C(=O)N2CCN(C3CCN(C)CC3)CC2)cc2cn[nH]c12", "note": "[Example 2, (R)-4-(3,3-dimethyl-6-oxo-2,3,6,7-tetrahydrothieno[2,3-b]pyridine-5-yl)-N-(3-(7-methyl-1H-indazole-5-yl)-1-(4-(1-methylpiperidine-4-yl)piperazine-1-yl)-1-oxopropan-2-yl)piperidine-1-formamide]", "IC50 values / inhibitory activities (in words)": "pM level"}
